From patent publication US20250340569A1, “INHIBITORS OF KIF18A AND USES THEREOF” (Insilico Medicine IP Limited, priority 2023, published 2025) come the findings set out here.

For experiment [1], the target named is T1, Kif18A (Homo sapiens, UniProt Q8NI77).
T1 sequence (Q8NI77 1-898): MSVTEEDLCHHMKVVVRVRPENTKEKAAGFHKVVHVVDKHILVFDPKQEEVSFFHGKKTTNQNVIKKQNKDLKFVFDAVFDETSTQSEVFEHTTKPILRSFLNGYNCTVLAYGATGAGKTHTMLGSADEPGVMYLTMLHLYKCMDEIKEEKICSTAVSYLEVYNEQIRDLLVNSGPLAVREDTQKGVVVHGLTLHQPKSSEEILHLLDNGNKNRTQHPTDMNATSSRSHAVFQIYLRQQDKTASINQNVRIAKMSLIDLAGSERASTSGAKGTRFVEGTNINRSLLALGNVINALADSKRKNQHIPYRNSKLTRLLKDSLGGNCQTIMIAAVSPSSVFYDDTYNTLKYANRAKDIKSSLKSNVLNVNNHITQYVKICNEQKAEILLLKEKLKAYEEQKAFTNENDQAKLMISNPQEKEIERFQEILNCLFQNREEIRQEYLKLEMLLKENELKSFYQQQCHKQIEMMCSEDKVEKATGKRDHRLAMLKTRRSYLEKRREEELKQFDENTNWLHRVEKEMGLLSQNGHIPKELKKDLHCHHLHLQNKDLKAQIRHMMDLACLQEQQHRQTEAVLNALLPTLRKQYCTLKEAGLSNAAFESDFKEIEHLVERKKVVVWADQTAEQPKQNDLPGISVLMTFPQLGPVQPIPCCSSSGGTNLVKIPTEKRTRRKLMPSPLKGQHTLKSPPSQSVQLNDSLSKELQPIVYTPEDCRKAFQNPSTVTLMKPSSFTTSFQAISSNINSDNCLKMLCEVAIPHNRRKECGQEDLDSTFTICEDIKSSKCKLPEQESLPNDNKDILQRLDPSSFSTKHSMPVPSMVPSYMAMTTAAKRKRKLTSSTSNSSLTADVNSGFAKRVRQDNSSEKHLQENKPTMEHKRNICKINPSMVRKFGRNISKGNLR
As to the kind of experiment: KIF18A assay (ADP Glo). The note with it: biochemical assay, ADP Glo luminescence. The method, then: The KIF18A assay was performed as follows:
1.1. Prepared 1× Kinase Buffer
• a) Added 40 μL test compound to 384-well dilution plate • b) Diluted compound 1:3 in succession in DMSO for each column for 10 pts • c) Transferred 0.1 μL diluted compound solution to 384 assay plate using Echo, each column containing 2 replicates • d) Added 5 μL enzyme working solution to 384-well assay plate, centrifuge 1000 RPM for 1 min e) Incubated at 25° C. for 15 min • f) Added 5 μL ATP working solution to initiate reaction • g) Incubated at 25° C. for 60 min • h) Added 10 μL ADP Glo reagent, centrifuge 1000 RPM for 1 min • i) Incubated at 25° C. for 60 min • j) Added 20 μL kinase detection reagent, centrifuge 1000 RPM for 1 min • k) Incubated at 25° C. for 60 min • l) Read Luminescence Signal on Envision 2104 plate reader.
1.3. Data Analysis—Calculated IC50 and Plot Dose-Response Curve of Compounds:
Calculated IC50 by fitting % Inhibition values and log of compound concentrations to nonlinear regression (dose response−variable slope) with GraphPad 6.0.
[formula] • X: log of inhibitor concentration; Y: % Inhibition

In experiment [2] the test system is OVCAR-3. As to the kind of experiment: OVCAR3 CTG assay. The class given is cell-based. The note with it: Homo sapiens, OVCAR-3, 144 h; CellTiter-Glo, 6 days incubation. The method, boiled down:
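OVCAR-3 cells plated overnight, then exposed to test compounds for 6 days at 37 °C, 5% CO2; 2 mM DMSO working stock diluted 200-fold overall, staurosporine as control. Viability read by CellTiter-Glo luminescence after 10 min lysis and 10 min room-temperature stabilisation.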

As for `Cc1cc2nc(n1)N(C1CC1)CCCOCC1(C(F)(F)F)CCN(CC1)c1cc(NS(=O)(=O)CCO)ccc1C(=O)N2` [EX45], the values for the IC50 in experiment [1] and in experiment [2] were 10 to 100 nM and 100 to 1000 nM, respectively.

Turning to `[2H]C([2H])([2H])N1CCCOCC2(C(F)(F)F)CCN(CC2)c2cc(NS(=O)(=O)CCO)ccc2C(=O)Nc2cccc1n2` [EX48], the 50% inhibitory concentration (IC50) in experiment [1] and in experiment [2] was 10 to 100 nM throughout.

Take `O=C1Nc2ccc(=O)n(n2)CCCCOCC2(C(F)(F)F)CCN(CC2)c2cc(NS(=O)(=O)CCO)ccc21` [EX50]: the IC50 in experiment [1] and in experiment [2] was 10 to 100 nM each time.

Take `Cc1cc2nc(n1)NCC(C)COCC1(C(F)(F)F)CCN(CC1)c1nc(NC(C)(C)CO)ccc1C(=O)N2` (centres unmarked) [EX55]: the IC50 in experiment [1] and in experiment [2] was 10 to 100 nM each time.

For the molecule `C[C@H]1CNc2cccc(n2)NC(=O)c2ccc(NS(=O)(=O)CCO)cc2N2CCC(C(F)(F)F)(CC2)COC1` [EX56-A], the half-maximal inhibitory concentration (IC50) in experiment [1] was less than 10 nM; in experiment [2], 10 to 100 nM.

For the molecule `C[C@@H]1CNc2cccc(n2)NC(=O)c2ccc(NS(=O)(=O)CCO)cc2N2CCC(C(F)(F)F)(CC2)COC1` [EX56-B], the IC50 in experiment [1] and in experiment [2] was less than 10 nM in each case.

Take `CC1CNc2cc(ccn2)NC(=O)c2ccc(NS(=O)(=O)CCO)cc2N2CCC(C(F)(F)F)(CC2)COC1` (centres unmarked) [EX57]: the IC50 in experiment [1] and in experiment [2] was 10 to 100 nM in each case.

With `[2H]C([2H])([2H])N1CCCOCC2(C(F)(F)F)CCN(CC2)c2cc(NS(=O)(=O)CCO)ccc2C(=O)Nc2ccnc1c2` [EX58], the IC50 in experiment [1] and in experiment [2] was 10 to 100 nM each time.

On to `Cc1cc2nc(n1)NCCCCOCC1(C(F)(F)F)CCN(CC1)c1cc(NS(=O)(=O)CCO)ccc1C(=O)N2` [EX59], for which the IC50 in experiment [1] and in experiment [2] was 10 to 100 nM each time.

Take `[2H]C([2H])([2H])N1CCCOCC2(C(F)(F)F)CCN(CC2)c2cc(NS(=O)(=O)CCO)ccc2C(=O)Nc2cc(C)cc1n2` [EX67]: the 50% inhibitory concentration (IC50) in experiment [1] was 10 to 100 nM; in experiment [2], 100 to 1000 nM.

For `CN1CCCOCC2(C(F)(F)F)CCN(CC2)c2nc(NS(=O)(=O)CCO)ccc2C(=O)Nc2cccc1n2` [EX72], the IC50 was less than 10 nM in experiment [1] and 100 to 1000 nM in experiment [2].

As for `CN1CCCOCC2(C(F)(F)F)CCN(CC2)c2cc(NS(=O)(=O)CCO)ccc2C(=O)Nc2ccc(C#N)c1n2` [EX73], the IC50 in experiment [1] and in experiment [2] was 10 to 100 nM in each case.

In the case of `CN1CCCOCC2(C(F)(F)F)CCN(CC2)c2cc(NS(=O)(=O)CCO)ccc2C(=O)Nc2ccnc1n2` [EX74], the IC50 in experiment [1] was less than 10 nM; in experiment [2] it was 10 to 100 nM.

`O=C1Nc2cccc(n2)N2CCO[C@@H](COCC3(C(F)(F)F)CCN(CC3)c3cc(NS(=O)(=O)CCO)ccc31)C2` [EX81-A]: the IC50 in experiment [1] is 10 to 100 nM; in experiment [2], less than 10 nM.

As to `CN1CCCOCC2(C(F)(F)F)CCN(CC2)c2cc(NS(=O)(=O)CCO)ncc2C(=O)Nc2cccc1n2` [EX82], the IC50 in experiment [1] and in experiment [2] was 10 to 100 nM in each case.

With `C[C@@H]1CCCC2(C(F)F)CCN(CC2)c2cc(NS(=O)(=O)CCO)ccc2C(=O)Nc2cccc(n2)NC1` [EX102-A], the results for the IC50 in experiment [1] and in experiment [2] were less than 10 nM and 10 to 100 nM, respectively.

For the molecule `Cc1cc2nc(n1)N1CCOC(COCC3(C(F)(F)F)CCN(CC3)c3cc(NS(=O)(=O)CCO)c(F)cc3C(=O)N2)C1` (centres unmarked) [EX112], the IC50 in experiment [1] and in experiment [2] was less than 10 nM throughout.

Consider `Cc1cc2nc(n1)N1CCO[C@H](COCC3(C(F)F)CCN(CC3)c3cc(NS(=O)(=O)CCO)ccc3C(=O)N2)C1` [EX113-A], for which the IC50 in experiment [1] was 10 to 100 nM; in experiment [2], less than 10 nM.

For the molecule `Cc1cc2nc(n1)N1CCC(F)(F)[C@@H](CCCC3(C)CCN(CC3)c3cc(NS(=O)(=O)CCO)ccc3C(=O)N2)C1` [EX115-B], the half-maximal inhibitory concentration (IC50) in experiment [1] and in experiment [2] was 10 to 100 nM each time.
